Earlier results on two compounds are cited in patent publication US20110053979A1, “PYRIDINE DERIVATIVES USED TO TREAT OREXIN RELATED DISORDERS” (priority 2008, published 2011).

Series [1] relates to rats.
Series [2] concerns rats. The source holds these as a separate data set.
The next series relates to freely-feeding rats. Particulars: central administration, 4 hour time period.
For series [3], the system named is rats. Particulars: central administration at the onset of the normal sleep period, rat.

For `Cc1nc2ccc(NC(=O)Nc3ccnc4cccnc34)cc2o1` [SB334867], the “effect on hedonic eating” value in the series on rats [1] was “potently reduced hedonic eating”. For the same compound, the “effect on high-fat pellet self-administration” value in the series with rats [2] was “attenuated high-fat pellet self-administration”.

With “orexin-A: polypeptide ligand for the orexin-1 receptor; an agonist of the orexin receptors (QPLPDCCRQKTCSCRLYELLHGAGNHAAGILTL; Orexin-A; UniProt O43612 34-66, looked up)”, the “increase of food intake over control rats receiving vehicle” value in the series on freely-feeding rats is listed as “approximately four-fold”. The effect on arousal entry with rats [3] is “dose-related increase in arousal”.
